Measured values: US6063782A, “Pyrrolopyridazine derivatives” (Sankyo Company, Limited, priority 1994, dated 2000)
Where a name gives a salt, the structure may show the parent alone.

Tests used:
[1] = target: proton.potassium-adenosine triphosphatase (H+.K+-ATPase) (Sus scrofa, UniProt P19156); experiment: Proton.potassium-adenosine triphosphatase (H+.K+-ATPase) inhibition test; type: biochemical; conditions: microsomal fraction of porcine gastric mucosa, pH=6.85, 37° C.; result given in words only
proton.potassium-adenosine triphosphatase (H+.K+-ATPase), sequence (P19156 whole entry): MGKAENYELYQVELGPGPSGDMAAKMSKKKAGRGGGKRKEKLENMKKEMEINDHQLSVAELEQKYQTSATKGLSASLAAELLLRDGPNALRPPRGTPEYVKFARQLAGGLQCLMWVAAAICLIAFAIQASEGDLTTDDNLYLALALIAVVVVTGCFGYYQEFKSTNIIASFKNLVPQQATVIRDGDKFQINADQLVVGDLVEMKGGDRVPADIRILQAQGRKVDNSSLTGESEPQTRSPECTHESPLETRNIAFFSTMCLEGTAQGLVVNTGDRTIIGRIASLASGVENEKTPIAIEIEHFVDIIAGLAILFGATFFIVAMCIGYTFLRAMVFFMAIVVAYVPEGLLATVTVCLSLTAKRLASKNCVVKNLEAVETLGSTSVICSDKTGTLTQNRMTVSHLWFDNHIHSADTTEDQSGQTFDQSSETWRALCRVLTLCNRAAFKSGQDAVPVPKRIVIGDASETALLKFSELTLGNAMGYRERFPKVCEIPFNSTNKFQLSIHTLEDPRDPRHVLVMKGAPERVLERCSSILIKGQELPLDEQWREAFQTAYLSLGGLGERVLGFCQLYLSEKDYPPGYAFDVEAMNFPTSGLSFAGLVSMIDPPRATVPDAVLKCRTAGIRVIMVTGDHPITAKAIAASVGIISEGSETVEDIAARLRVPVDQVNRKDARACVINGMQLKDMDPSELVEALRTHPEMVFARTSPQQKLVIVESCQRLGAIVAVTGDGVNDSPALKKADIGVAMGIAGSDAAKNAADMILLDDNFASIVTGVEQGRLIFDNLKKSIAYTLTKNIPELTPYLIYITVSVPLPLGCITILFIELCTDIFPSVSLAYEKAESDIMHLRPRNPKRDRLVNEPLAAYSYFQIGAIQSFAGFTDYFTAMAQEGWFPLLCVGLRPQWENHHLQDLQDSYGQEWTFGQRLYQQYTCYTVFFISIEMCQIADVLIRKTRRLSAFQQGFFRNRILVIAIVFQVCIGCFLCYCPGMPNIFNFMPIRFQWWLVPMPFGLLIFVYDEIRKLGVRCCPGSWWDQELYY
proton.potassium-adenosine triphosphatase (H+.K+-ATPase), sequence (P18434 whole entry partner): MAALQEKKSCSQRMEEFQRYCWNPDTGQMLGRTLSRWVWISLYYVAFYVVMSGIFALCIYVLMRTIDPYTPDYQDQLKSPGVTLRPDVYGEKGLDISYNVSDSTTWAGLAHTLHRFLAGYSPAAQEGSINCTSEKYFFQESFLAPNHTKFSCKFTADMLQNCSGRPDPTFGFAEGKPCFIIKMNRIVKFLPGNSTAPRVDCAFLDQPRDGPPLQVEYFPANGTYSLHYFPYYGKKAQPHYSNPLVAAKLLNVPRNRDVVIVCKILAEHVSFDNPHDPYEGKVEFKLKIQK
Protocol: Proton.potassium-adenosine triphosphatase (H^+.K^+ -ATPase) activation test
According to the method reported by Sachs et al. [J. Biol. Chem., 251, 7690 (1976)], a microsomal fraction obtained from homogenized fresh porcine gastric mucosa by density gradient ultracentrifugation was used as the proton.potassium-adenosine triphosphatase preparation, 10 μl of a solution of a test compound in dimethylsulfoxide were added to 0.75 ml of 70 mM tris-HCl buffer solution (magnesium chloride 5 mM, potassium chloride 20 mM and pH=6.85) containing from 30 to 80 μg/ml (in terms of protein concentration) of the enzyme preparation and the mixture was incubated for 45 minutes at 37° C. with shaking at 200 times per minute. The enzyme reaction was initiated by adding 0.25 ml of 8 mM disodium adenosine triphosphate solution. After 20 minutes of the reaction time, the reaction was stopped by adding 1 ml of a 10k trichloroacetic acid-active carbon (100 mg) solution. The reaction solution was centrifuged (4° C., 3000 rpm, 15 minutes) and the inorganic phosphate in the supernatant prepared from adenosine triphosphate by hydrolysis was measured by colorimetry, according to the method of Yoda and Hokin [Biochem. Biophys. Res. Commun., 40, 880 (1970)]. In a similar manner, the amount of inorganic phosphate was measured in a reaction solution in the absence of potassium chloride. From the difference between the phosphate amounts in the presence and absence of potassium chloride, the proton-potassium-adenosine triphosphatase activity was calculated. Based on the activity value in the control and the values in the test compound at the various concentrations tested, the inhibiting rates (%) and then the 50? inhibiting concentrations (IC50) to proton.potassium-adenosine triphosphatase activity were obtained.

gastric acid secretion = experiment: Gastric acid secretion activity test using pyloric ligation in rats (Shay rat method); type: in vivo; conditions: male SD rats, 20 mg/kg injected into the duodenal region, 4 hours, result given in words only
Protocol: Gastric acid secretion activity test using pyloric ligation in rats (Shay rat method)
Pyloric ligation was conducted based on the method of Shay et al. [Gastroenterology, 5, 43 (1945)]. Male rats of SD strain were fasted for 24 hours; their abdomens were sectioned during anesthesia under ether. The duodenal and pyloric regions were exposed and the latter was ligated. A solution of a test compound (10 mg/ml) prepared by use of 1.5w parts of dimethylacetamide, 68.5% parts of polyethyleneglycol (PEG-400) and 30% parts of physiological saline solution, was injected into the duodenal region for the dose to be 20 mg/kg by use of a 1-ml syringe and an injection needle (26G). After injection of the test compound, the abdominal region was sutured. The animals were allowed to a stand for 4 hours without feeding food and water and then sacrified with carbon dioxide gas. The stomach was excised and gastric juice was gathered. The gastric juice sample was centrifuged (4° C., 2500 rpm, 15 minutes). The amount of the supernatant was measured to be as the gastric secretion. The acidity of the gastric juice was determined by the amount (ml) of 0.01 N sodium hydroxide solution required for titration of 0.1 ml of the supernatant to pH 7.0 by use of-an auto-titrating apparatus. The value of gastric acid secretion was calculated from the value of gastric secretion and the acidity of gastric juice. The inhibiting rate was obtained from the values of gastric acid secretion of the control group and of the administered group.

[2] = test system: Helicobacter pylori strains 9470, 9472 and 9474; experiment: Antibacterial activity against Helicobacter pylori; type: cell-based; conditions: strains 9470, 9472 and 9474, 37° C., 3 days, slightly aerobic; result given in words only
Protocol: Antibacterial activity against Helicobacter pylori The antibacterial activity of the compounds of the present invention were evaluated by measuring the minimum inhibitory concentration values (MIC) of the present compounds against Helicobacter pylori strains 9470, 9472 and 9474. These strains of Helicobacter pylori were incubated for 4 days on a plate medium. The medium was prepared by dissolving brain heart infusion agar (Product of DIFCO) in a defined amount of distilled water, by sterilization in an autoclave, injecting horse blood (Product of Nihon Seibutsu Zairyo Co.) into each plate for the medium to contain 7% of the blood and by solidifying. Under slightly aerobic conditions, Helicobacter pylori cultivated at 37° C. for 4 days was suspended in a physiological saline solution for its inocular size to be about 10^8 CFU/ml. The suspension was diluted 100 times, and about 10 μl of the diluted suspension was inoculated on a medium for MIC determination. The medium for MIC determination used had the same compounds as those for preculture. […] In a similar way to the preculture, Helicobacter pylori was cultivated at 37° C. for 3 days under slightly aerobic conditions. […] The minimum concentration which gave no bacterial growth was regarded as MIC of the compound of the present invention.

Structure (SMILES)	inhibiting concentrations (IC50) to proton.potassium-adenosine triphosphatase activity [1]	inhibiting rate of gastric acid secretion (gastric acid secretion)	minimum inhibitory concentration (MIC) against Helicobacter pylori [2]
Cc1c(C)n(C[C@@H]2C[C@H]2C)c2c(OCc3ccc(F)cc3)nncc12 (relative stereo) [Example 57, 7-(4-Fluorobenzyloxy)-2,3-dimethyl-1-(2-methylcyclopropylmethyl)pyrrolo[2,3-d]pyridazine]	excellent activity	excellent activity	excellent antibacterial activity
Cc1c(C)n(C[C@@H]2C[C@H]2C)c2c(OCc3ccc(F)cc3F)nncc12 (relative stereo) [Example 58, 7-(2,4-Difluorobenzyloxy)-2,3-dimethyl-1-(2-methylcyclopropylmethyl)pyrrolo[2,3-d]pyridazine]	excellent activity	excellent activity	excellent antibacterial activity
CC=CCn1c(C)c(C)c2cnnc(OCc3ccc(F)cc3)c21 [Example 1, 1-(2-Butenyl)-7-(4-fluorobenzyloxy)-2,3-dimethylpyrrolo[2,3-d]pyridazine]	excellent activity	excellent activity	excellent antibacterial activity
C=CCn1c(C)c(C)c2cnnc(OCc3ccccc3)c21 [Example 3, 7-Benzyloxy-2,3-dimethyl-1-(2-propenyl)pyrrolo[2,3-d]pyridazine]		excellent activity	excellent antibacterial activity
Cc1c(C)n(CC2CC2)c2c(OCc3ccccc3)nncc12 [Example 4, 7-Benzyloxy-1-cyclopropylmethyl-2,3-dimethylpyrrolo[2,3-d]pyridazine]	excellent activity		excellent antibacterial activity
CC=CCn1c(C)c(C)c2cnnc(OCc3ccccc3)c21 [Example 5, 7-Benzyloxy-1-(2-butenyl)-2,3-dimethylpyrrolo[2,3-d]pyridazine]		excellent activity	excellent antibacterial activity
C=CCn1c(C)c(C)c2cnnc(OCc3ccc(F)cc3)c21 [Example 7, 7-(4-Fluorobenzyloxy)-2,3-dimethyl-1-(2-propenyl)pyrrolo[2,3-d]pyridazine]	excellent activity	excellent activity	excellent antibacterial activity
C=CCn1c(C)c(C)c2cnnc(OCc3ccc(F)cc3F)c21 [Example 9, 7-(2,4-Difluorobenzyloxy)-2,3-dimethyl-1-(2-propenyl)pyrrolo[2,3-d]pyridazine]	excellent activity	excellent activity	excellent antibacterial activity
CC/C=C/Cn1c(C)c(C)c2cnnc(OCc3ccccc3)c21 [Example 11, 7-Benzyloxy-2,3-dimethyl-1-(2-pentenyl)pyrrolo[2,3-d]pyridazine]		excellent activity	excellent antibacterial activity
C=CCn1c(C)c(C)c2cnnc(OCc3ccc(Cl)cc3)c21 [Example 12, 7-(4-Chlorobenzyloxy)-2,3-dimethyl-1-(2-propenyl)povrrolo[2,3-d]pyridazine]		excellent activity	excellent antibacterial activity
C=C(C)Cn1c(C)c(C)c2cnnc(OCc3ccccc3)c21 [Example 14, 7-Benzyloxy-2,3-dimethyl-1-(2-methyl-2-propenyl)-ovrrolo[2,3-d]pyridazine]		excellent activity	excellent antibacterial activity
Cc1c(C)n(C2CC2)c2c(OCc3ccccc3)nncc12 [Example 16, 7-Benzyloxy-1-cyclopropyl-2,3-dimethylpyrrolo[2,3-d]pyridazine]		excellent activity	excellent antibacterial activity
C=CCn1c(C)c(C)c2cnnc(OCc3ccc(Cl)cc3Cl)c21 [Example 17, 7-(2,4-Dichlorobenzyloxy)-2,3-dimethyl-1-(2-propenyl)pyrrolo[2,3-d]pyridazine]	excellent activity	excellent activity	excellent antibacterial activity
CC=CCn1c(C)c(C)c2cnnc(OCc3ccc(Cl)cc3Cl)c21 [Example 21, 1-(2-Butenyl)-7-(2,4-dichlorobenzyloxy)-2,3-dimethylpyrrolo[2,3-d]pyridazine]	excellent activity		excellent antibacterial activity
Cc1c(C)n(CC2CC2)c2c(OCc3ccc(F)cc3)nncc12 [Example 35, 1-Cyclopropylmethyl-7-(4-fluorobenzyloxy)-2,3-dimethylpyrrolo[2,3-d]pyridazine]	excellent activity	excellent activity	
CC=CCn1c(C)c(C)c2cnnc(OCc3c(Cl)cccc3Cl)c21 [Example 49, 1-(2-Butenyl)-7-(2,6-dichlorobenzyloxy)-2,3-dimethylpyrrolo[2,3-d]pyridazine]	excellent activity		excellent antibacterial activity
Cc1c(C)n(CC2CC2C)c2c(CCc3ccccc3)nncc12 (centres unmarked) [Example 68, 2,3-Dimethyl-1-(2-methylcyclopropylmethyl)-7-phenethylpyrrolo[2,3-d]pyridazine]		excellent activity	
C/C=C/Cn1c(C)c(C)c2cnnc(OCc3ccc(F)cc3)c21 [Example 74, 1-(2-Butenyl)-7-(4-fluorobenzyloxy)-2,3-dimethylpyrrolo[2,3-d]pyridazine hydrochloride]	excellent activity		
CC=CCn1c(C)c(C)c2c[n+]([O-])nc(OCc3ccc(F)cc3)c21 [Example 75, 1-(2-Butenyl)-7-(4-fluorobenzyloxy)-2,3-dimethylpyrrolo[2,3-d]pyridazine-5-oxide]	excellent activity		excellent antibacterial activity
CC=CCn1c(C)c(C)c2c[n+]([O-])nc(OCc3ccc(F)cc3F)c21 [Example 76, 1-(2-Butenyl)--7-(2,4-difluorobenzyloxy)-2,3-dimethylpyrrolo[2,3-d]pyridazine-5-oxide]	excellent activity		excellent antibacterial activity
